Data taken from PubChem BioAssay AID330 (DTP/NCI, 2004).
Values joined by “and” are separate entries in the source; they are usually repeats but may differ in a detail not shown here. Identical values can stand only once. Inconclusive results and toxic doses are left out.

Test system: P388 leukemia ip, CD2F1 mice, survival T/C
Assay: NCI In Vivo Anticancer Drug Screen. Data for tumor model P388 Leukemia (intraperitoneal) in CD2F1 (CDF1) mice
Details: endpoint: median survival time, higher = longer survival
How it was run: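 Mice carrying the transplanted tumor received test compound or vehicle. Survival was recorded in each group, and the value is the treated-group measurement divided by that of the vehicle-treated control group.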

[1] = dose: 25.0 mg/kg/injection, schedule: Q01DX005 (ip), vehicle: Klucel (hydroxypropylcellulose) (HPC)
[2] = dose: 50.0 mg/kg/injection, schedule: Q01DX005 (ip), vehicle: Klucel (hydroxypropylcellulose) (HPC)
[3] = dose: 50.0 mg/kg/injection, schedule: Q01DX009 (ip), vehicle: saline with Tween-80
[4] = dose: 100.0 mg/kg/injection, schedule: Q01DX009 (ip), vehicle: saline with Tween-80
[5] = dose: 200.0 mg/kg/injection, schedule: Q01DX009 (ip), vehicle: saline with Tween-80
[6] = dose: 12.5 mg/kg/injection, schedule: Q01DX009 (ip), vehicle: saline with Tween-80
[7] = dose: 25.0 mg/kg/injection, schedule: Q01DX009 (ip), vehicle: saline with Tween-80
[8] = dose: 25.0 mg/kg/injection, schedule: Q01DX009 (ip), vehicle: saline
[9] = dose: 50.0 mg/kg/injection, schedule: Q01DX009 (ip), vehicle: saline
[10] = dose: 100.0 mg/kg/injection, schedule: Q01DX009 (ip), vehicle: saline
[11] = dose: 200.0 mg/kg/injection, schedule: Q01DX009 (ip), vehicle: saline
[12] = dose: 50.0 mg/kg/injection, schedule: Q01DX005 (ip), vehicle: saline with Tween-80
[13] = dose: 150.0 mg/kg/injection, schedule: Q01DX009 (ip), vehicle: saline with Tween-80

Compound: CC1=NC(=O)C(N=O)C(=O)N1 (stereo unspecified)
- T/C (dose: 100.0 mg/kg/injection, schedule: Q04DX002 (ip), vehicle: saline with Tween-80): 99 % of control
- T/C (dose: 200.0 mg/kg/injection, schedule: Q04DX002 (ip), vehicle: saline with Tween-80): 97 % of control

Compound: N/C(=N\[N+](=O)[O-])N1CCCCCC1
- T/C (dose: 12.5 mg/kg/injection, schedule: Q01DX005 (ip), vehicle: Klucel (hydroxypropylcellulose) (HPC)): 106 % of control
- T/C [1]: 100 % of control
- T/C [2]: 107 % of control

Compound: CCCCCCCOCC(=O)OC
- T/C [3]: 109 % of control
- T/C [4]: 108 % of control
- T/C [5]: 101 % of control

Compound: O=C(C[n+]1ccc2ccccc2c1)c1ccccc1
- T/C (dose: 6.25 mg/kg/injection, schedule: Q01DX009 (ip), vehicle: saline): 111 % of control
- T/C [6]: 113 % of control
- T/C (dose: 12.5 mg/kg/injection, schedule: Q01DX009 (ip), vehicle: saline): 108 % of control
- T/C [7]: 104 % of control
- T/C [8]: 98 % of control
- T/C [3]: 104 % of control
- T/C [9]: 110 % of control

Compound: CS(=O)(=O)C12CCCN1C(=O)C1CCCN1C2=O (stereo unspecified)
- T/C [9]: 99 % of control
- T/C [10]: 102 % of control
- T/C [11]: 90 % of control

Compound: C=CC(=O)N1CCCC1C(=O)O (stereo unspecified)
- T/C [9]: 100 % of control
- T/C [10]: 109 % of control
- T/C [11]: 100 % of control

Compound: OCc1ccc2c(c1)CCC2
- T/C (dose: 50.0 mg/kg/injection, schedule: Q01DX009 (ip), vehicle: other): 100 % of control

Compound: CC(C)C(N)C(=O)NC(C(=O)O)C(C)C (stereo unspecified)
- T/C (dose: 6.25 mg/kg/injection, schedule: Q01DX005 (ip), vehicle: saline): 95 % of control
- T/C (dose: 12.5 mg/kg/injection, schedule: Q01DX005 (ip), vehicle: saline): 95 % of control
- T/C (dose: 25.0 mg/kg/injection, schedule: Q01DX005 (ip), vehicle: saline): 96 % of control
- T/C (dose: 50.0 mg/kg/injection, schedule: Q01DX005 (ip), vehicle: saline): 98 % of control
- T/C (dose: 100.0 mg/kg/injection, schedule: Q01DX005 (ip), vehicle: saline): 88 % of control and 104 % of control
- T/C (dose: 200.0 mg/kg/injection, schedule: Q01DX005 (ip), vehicle: saline): 100 % of control

Compound: O=[N+]([O-])c1ccc(NCCO)c([N+](=O)[O-])c1
- T/C (dose: 100.0 mg/kg/injection, schedule: Q04DX003 (ip), vehicle: saline with Tween-80): 100 % of control
- T/C (dose: 200.0 mg/kg/injection, schedule: Q04DX003 (ip), vehicle: saline with Tween-80): 100 % of control
- T/C (dose: 400.0 mg/kg/injection, schedule: Q04DX003 (ip), vehicle: saline with Tween-80): 90 % of control

Compound: COc1ccccc1/C=C/C(=O)c1ccccc1
- T/C [3]: 96 % of control
- T/C [4]: 94 % of control
- T/C [5]: 96 % of control

Compound: CCC(C)N=Cc1ccco1 (stereo unspecified)
- T/C [1]: 101 % of control
- T/C [2]: 104 % of control
- T/C (dose: 100.0 mg/kg/injection, schedule: Q01DX005 (ip), vehicle: Klucel (hydroxypropylcellulose) (HPC)): 90 % of control
- T/C (dose: 200.0 mg/kg/injection, schedule: Q01DX005 (ip), vehicle: Klucel (hydroxypropylcellulose) (HPC)): 99 % of control

Compound: C1N2CN3CN1CN(C2)C3 (tested in a mixture with another compound)
- T/C [9]: 107 % of control
- T/C [10]: 101 % of control
- T/C [11]: 107 % of control

Compound: N#[N+]c1ccc2c(S(=O)(=O)Oc3ccc(C(=O)c4ccccc4)c(OS(=O)(=O)c4cccc5c([O-])c([N+]#N)ccc45)c3)cccc2c1[O-]
- T/C (dose: 12.5 mg/kg/injection, schedule: Q01DX005 (ip), vehicle: saline with Tween-80): 110 % of control
- T/C (dose: 25.0 mg/kg/injection, schedule: Q01DX005 (ip), vehicle: saline with Tween-80): 107 % of control
- T/C [12]: 105 % of control and 107 % of control

Compound: NC(=S)N/N=C/c1ccc(C(F)(F)F)cn1
- T/C (dose: 3.8 mg/kg/injection, schedule: Q01DX009 (ip), vehicle: Klucel (hydroxypropylcellulose) (HPC)): 96 % of control
- T/C (dose: 5.8 mg/kg/injection, schedule: Q01DX009 (ip), vehicle: Klucel (hydroxypropylcellulose) (HPC)): 93 % of control
- T/C (dose: 6.0 mg/kg/injection, schedule: Q01DX009 (ip), vehicle: Klucel (hydroxypropylcellulose) (HPC)): 107 % of control
- T/C (dose: 8.8 mg/kg/injection, schedule: Q01DX009 (ip), vehicle: Klucel (hydroxypropylcellulose) (HPC)): 93 % of control
- T/C (dose: 8.9 mg/kg/injection, schedule: Q01DX009 (ip), vehicle: Klucel (hydroxypropylcellulose) (HPC)): 114 % of control
- T/C (dose: 13.3 mg/kg/injection, schedule: Q01DX009 (ip), vehicle: Klucel (hydroxypropylcellulose) (HPC)): 114 % of control and 93 % of control
- T/C (dose: 20.0 mg/kg/injection, schedule: Q01DX009 (ip), vehicle: Klucel (hydroxypropylcellulose) (HPC)): 101 % of control and 121 % of control
- T/C (dose: 30.0 mg/kg/injection, schedule: Q01DX009 (ip), vehicle: Klucel (hydroxypropylcellulose) (HPC)): 114 % of control

Compound: CCOC(=O)Nc1nncs1
- T/C (dose: 12.5 mg/kg/injection, schedule: Q01DX009 (ip), vehicle: distilled water + Tween-80): 103 % of control
- T/C (dose: 25.0 mg/kg/injection, schedule: Q01DX009 (ip), vehicle: distilled water + Tween-80): 105 % of control and 108 % of control
- T/C (dose: 50.0 mg/kg/injection, schedule: Q01DX009 (ip), vehicle: distilled water + Tween-80): 108 % of control
- T/C (dose: 100.0 mg/kg/injection, schedule: Q01DX009 (ip), vehicle: distilled water + Tween-80): 100 % of control
- T/C (dose: 200.0 mg/kg/injection, schedule: Q01DX009 (ip), vehicle: distilled water + Tween-80): 151 % of control and 168 % of control
- T/C (dose: 400.0 mg/kg/injection, schedule: Q01DX009 (ip), vehicle: distilled water + Tween-80): 108 % of control

Compound: OCC1CC2C=CC1O2 (stereo unspecified)
- T/C [12]: 101 % of control
- T/C (dose: 100.0 mg/kg/injection, schedule: Q01DX005 (ip), vehicle: saline with Tween-80): 114 % of control
- T/C (dose: 200.0 mg/kg/injection, schedule: Q01DX005 (ip), vehicle: saline with Tween-80): 95 % of control

Compound: CC1N[P+]2(OC1=O)Oc1ccccc1N2C (stereo unspecified)
- T/C (dose: 87.5 mg/kg/injection, schedule: Q04DX002 (ip), vehicle: Klucel (hydroxypropylcellulose) (HPC)): 102 % of control
- T/C (dose: 175.0 mg/kg/injection, schedule: Q04DX002 (ip), vehicle: Klucel (hydroxypropylcellulose) (HPC)): 100 % of control
- T/C (dose: 350.0 mg/kg/injection, schedule: Q04DX002 (ip), vehicle: Klucel (hydroxypropylcellulose) (HPC)): 100 % of control

Compound: [O-]/[N+](=C\c1c(Cl)cccc1Cl)CC1(O)CCCCC1
- T/C [3]: 96 % of control
- T/C [4]: 90 % of control
- T/C [5]: 99 % of control

Compound: CCC1CN2CCc3cc(OC)c(OC)cc3C2CC12CO2 (stereo unspecified)
- T/C [6]: 114 % of control
- T/C [7]: 108 % of control
- T/C [3]: 96 % of control

Compound: CCCOP(=S)(N1CC1(C)C)N1CC1(C)C (stereo unspecified)
- T/C [6]: 104 % of control
- T/C [7]: 113 % of control
- T/C [13]: 155 % of control

Compound: CCOC(=O)N(NC(=O)Nc1ccccc1)C(c1ccccc1)c1ccccc1
- T/C (dose: 75.0 mg/kg/injection, schedule: Q01DX009 (ip), vehicle: saline with Tween-80): 94 % of control
- T/C [13]: 94 % of control
- T/C (dose: 300.0 mg/kg/injection, schedule: Q01DX009 (ip), vehicle: saline with Tween-80): 98 % of control

Compound: O=C1CCCC2C3CCC[N+]4([O-])CCCC(O)(CN12)C34 (stereo unspecified)
- T/C (dose: 6.2 mg/kg/injection, schedule: Q01DX007 (ip), vehicle: carboxymethylcellulose (CMC)): 100 % of control
- T/C (dose: 12.5 mg/kg/injection, schedule: Q01DX007 (ip), vehicle: carboxymethylcellulose (CMC)): 91 % of control
- T/C (dose: 25.0 mg/kg/injection, schedule: Q01DX007 (ip), vehicle: carboxymethylcellulose (CMC)): 91 % of control

Compound: CCCN1C=C(C(=O)OCC)C(N)=C(C#N)/C1=C\C=C(/C#N)C(=O)OCC
- T/C (dose: 6.25 mg/kg/injection, schedule: Q01DX001 (ip), vehicle: Klucel (hydroxypropylcellulose) (HPC)): 89 % of control
- T/C (dose: 12.5 mg/kg/injection, schedule: Q01DX001 (ip), vehicle: Klucel (hydroxypropylcellulose) (HPC)): 87 % of control
- T/C (dose: 25.0 mg/kg/injection, schedule: Q01DX001 (ip), vehicle: Klucel (hydroxypropylcellulose) (HPC)): 86 % of control
- T/C (dose: 50.0 mg/kg/injection, schedule: Q01DX001 (ip), vehicle: Klucel (hydroxypropylcellulose) (HPC)): 88 % of control
- T/C (dose: 100.0 mg/kg/injection, schedule: Q01DX001 (ip), vehicle: Klucel (hydroxypropylcellulose) (HPC)): 90 % of control

Compound: COc1ccc2c(c1)CCC1C2=CCP1(C)=O (stereo unspecified)
- T/C [8]: 97 % of control
- T/C [9]: 101 % of control
- T/C [10]: 93 % of control
- T/C [11]: 91 % of control

Compound: Cc1cc[n+](-c2nc3c([O-])n(C)c(=O)n(C)c-3n2)cc1
- T/C (dose: 100.0 mg/kg/injection, schedule: Q04DX003 (ip), vehicle: saline): 99 % of control
- T/C (dose: 200.0 mg/kg/injection, schedule: Q04DX003 (ip), vehicle: saline): 99 % of control
- T/C (dose: 400.0 mg/kg/injection, schedule: Q04DX003 (ip), vehicle: saline): 94 % of control
